From article PMC5399447, “Neuroprotective pentapeptide CN-105 is associated with reduced sterile inflammation and improved functional outcomes in a traumatic brain injury murine model” (Scientific Reports, 2017)

Test system: 84 genes related to inflammatory and autoimmune processes
Test: Mouse Inflammatory Response and Autoimmunity PCR Array, whole brain
Type: in vivo
Procedure: Frozen, pulverized whole brain tissue was processed for RNA extraction from a separate cohort of treated and untreated injured animals on days 1 post-injury(CN-105, n = 4; vehicle, n = 3; Control(sham-operated), n = 3). Total RNA was extracted from frozen, pulverized whole brain tissue using RNeasy Lipid Tissue Mini Kit(Qiagen, Valencia, CA). RNA quantity and quality was assessed with the NanoDrop ND-1000 spectrophotometer(NanoDrop Technologies, Inc., Wilmington, DE) and by agarose gel electrophoresis. Only samples with a 260/280 ratio between 1.9–2.1, and a 260/230 ratio greater than 2.0, were further processed. First strand complementary DNA(cDNA) was generated from 2 μg total RNA using the RT[2] First strand kit(SABiosciences, Frederick, MD.)
Gene expression was measured using the Mouse Inflammatory Response and Autoimmunity PCR Array(SABiosciences, Frederick, MD), which profiles the expression of 84 genes related to inflammatory and autoimmune processes. RT-PCR was performed according to manufacturer’s instructions Quality of the cDNA and PCR efficiency was verified by housekeeping genes and RT-PCR controls included in the PCR Array.
Raw RT-PCR data were analyzed using the Web-Based PCR Array Data Analysis software(SABiosciences). ΔCt values and ΔΔCt - based fold-change were calculated from raw threshold cycle data, using beta-actin and glyceraldehyde 3-phosphate dehydrogenase(GAPDH) as internal standards for normalization. Fold changes were then normalized against sham-operated controls.

[1] = TBI + CN-105 0.05 mg/kg iv 2 h post injury, brain 24 h
[2] = TBI CN-105 vs TBI vehicle, brain 24 h post TBI

## Ac-VSRRR-amide [CN-105]
[1]
  Bcl6 ΔCt value, TBI-CN-105: 5.7E − 01
  C3ar1 ΔCt value, TBI-CN-105: 1.2E − 01
  C3 ΔCt value, TBI-CN-105: 1.9E − 03
  C4b ΔCt value, TBI-CN-105: 5.9E − 01
  Ccl1 ΔCt value, TBI-CN-105: 9.1E − 01
  Ccl2 ΔCt value, TBI-CN-105: 2.5E − 02
  Ccl3 ΔCt value, TBI-CN-105: 8.9E − 03
  Ccl4 ΔCt value, TBI-CN-105: 1.2E − 02
  Ccl5 ΔCt value, TBI-CN-105: 3.4E − 03
  Ccl7 ΔCt value, TBI-CN-105: 3.7E − 03
  Ccl8 ΔCt value, TBI-CN-105: 4.2E − 03
  Ccl11 ΔCt value, TBI-CN-105: 1.8E − 01
  Ccl12 ΔCt value, TBI-CN-105: 1.3E − 02
  Ccl17 ΔCt value, TBI-CN-105: 1.0E − 03
  Ccl19 ΔCt value, TBI-CN-105: 3.4E − 03
  Ccl20 ΔCt value, TBI-CN-105: 7.9E − 02
  Ccl22 ΔCt value, TBI-CN-105: 2.2E − 02
  Ccl24 ΔCt value, TBI-CN-105: 5.1E − 03
  Ccl25 ΔCt value, TBI-CN-105: 9.5E − 02
  Ccr1 ΔCt value, TBI-CN-105: 3.0E − 04
  Ccr2 ΔCt value, TBI-CN-105: 1.5E − 03
  Ccr3 ΔCt value, TBI-CN-105: 1.1E − 01
  Ccr4 ΔCt value, TBI-CN-105: 3.1E − 02
  Ccr7 ΔCt value, TBI-CN-105: 3.4E − 02
  Cd40lg ΔCt value, TBI-CN-105: 4.2E − 03
  Cd40 ΔCt value, TBI-CN-105: 2.1E − 02
  Cebpb ΔCt value, TBI-CN-105: 2.4E − 01
  Crp ΔCt value, TBI-CN-105: 7.1E − 04
  Csf1 ΔCt value, TBI-CN-105: 1.2E − 02
  Cxcl1 ΔCt value, TBI-CN-105: 1.8E − 03
  Cxcl2 ΔCt value, TBI-CN-105: 1.7E − 03
  Cxcl3 ΔCt value, TBI-CN-105: 1.6E + 00
  Cxcl5 ΔCt value, TBI-CN-105: 1.4E + 00
  Cxcl9 ΔCt value, TBI-CN-105: 2.2E − 03
  Cxcl10 ΔCt value, TBI-CN-105: 5.3E − 04
  Cxcl11 ΔCt value, TBI-CN-105: 8.8E − 03
  Cxcr4 ΔCt value, TBI-CN-105: 9.0E − 02
  Fasl ΔCt value, TBI-CN-105: 6.7E − 04
  Flt3l ΔCt value, TBI-CN-105: 7.1E − 04
  Fos ΔCt value, TBI-CN-105: 1.7E − 01
  Hdac4 ΔCt value, TBI-CN-105: 8.3E − 01
  Ifng ΔCt value, TBI-CN-105: 4.3E − 03
  Il1a ΔCt value, TBI-CN-105: 5.4E − 02
  Il1b ΔCt value, TBI-CN-105: 4.6E − 01
  Il1f10 ΔCt value, TBI-CN-105: 5.5E − 03
  Il1r1 ΔCt value, TBI-CN-105: 7.5E − 04
  Il1rap ΔCt value, TBI-CN-105: 8.2E − 04
  Il1rn ΔCt value, TBI-CN-105: 1.7E − 03
  Il6ra ΔCt value, TBI-CN-105: 1.6E − 01
  Il6 ΔCt value, TBI-CN-105: 1.8E − 03
  Il7 ΔCt value, TBI-CN-105: 5.9E − 01
  Il8ra ΔCt value, TBI-CN-105: 2.6E − 03
  Il8rb ΔCt value, TBI-CN-105: 5.4E − 03
  Il9 ΔCt value, TBI-CN-105: 1.4E − 02
  Il10rb ΔCt value, TBI-CN-105: 2.2E − 02
  Il10 ΔCt value, TBI-CN-105: 1.6E − 03
  Il18rap ΔCt value, TBI-CN-105: 6.6E − 03
  Il18 ΔCt value, TBI-CN-105: 9.6E − 03
  Il22ra2 ΔCt value, TBI-CN-105: 8.2E − 02
  Il22 ΔCt value, TBI-CN-105: 3.4E − 03
  Il23a ΔCt value, TBI-CN-105: 2.3E − 02
  Il23r ΔCt value, TBI-CN-105: 8.0E − 04
  Itgb2 ΔCt value, TBI-CN-105: 5.3E − 02
  Kng1 ΔCt value, TBI-CN-105: 8.5E − 03
  Lta ΔCt value, TBI-CN-105: 1.1E − 01
  Ltb ΔCt value, TBI-CN-105: 3.9E − 02
  Ly96 ΔCt value, TBI-CN-105: 7.7E − 02
  Myd88 ΔCt value, TBI-CN-105: 6.6E − 03
  Nfatc3 ΔCt value, TBI-CN-105: 3.2E + 00
  Nfkb1 ΔCt value, TBI-CN-105: 5.3E − 03
  Nos2 ΔCt value, TBI-CN-105: 1.6E − 01
  Nr3c1 ΔCt value, TBI-CN-105: 1.2E − 02
  Ripk2 ΔCt value, TBI-CN-105: 2.1E − 01
  Tirap ΔCt value, TBI-CN-105: 5.3E − 02
  Tlr1 ΔCt value, TBI-CN-105: 7.4E − 03
  Tlr2 ΔCt value, TBI-CN-105: 9.1E − 03
  Tlr3 ΔCt value, TBI-CN-105: 5.8E − 02
  Tlr4 ΔCt value, TBI-CN-105: 2.0E − 02
  Tlr5 ΔCt value, TBI-CN-105: 1.7E − 03
  Tlr6 ΔCt value, TBI-CN-105: 7.0E − 03
  Tlr7 ΔCt value, TBI-CN-105: 9.1E − 01
  Tnf ΔCt value, TBI-CN-105: 3.8E − 02
  Tnfsf14 ΔCt value, TBI-CN-105: 9.0E − 03
  Tollip ΔCt value, TBI-CN-105: 5.1E − 02
[2]
  Bcl6 Fold Change: 921
  C3 Fold Change: 1.5
  C3ar1 Fold Change: −3.1
  C4b Fold Change: −1.1
  Ccl1 Fold Change: 1.5
  Ccl2 Fold Change: −2.6
  Ccl3 Fold Change: 1.5
  Ccl4 Fold Change: −2.6
  Ccl5 Fold Change: −1.6
  Ccl7 Fold Change: −1.2
  Ccl8 Fold Change: 31.2
  Ccl11 Fold Change: −3.6
  Ccl12 Fold Change: 64.2
  Ccl17 Fold Change: −1.7
  Ccl19 Fold Change: −5.2
  Ccl20 Fold Change: −1.5
  Ccl22 Fold Change: 60.2
